Here are results for 4 compounds from patent publication US8946211B2, “Fused aminodihydrothiazine derivatives” (Eisai R&D Management Co., Ltd., priority 2008, dated 2015).

Structures are written as SMILES. pIC50: −log10 of the molar value. Like-named read-outs stand apart in the source and are kept apart here.

The test deals with Aβ42 production. The experiment in a line: Quantification of Aβ peptide in culture of neurons from rat fetus brain (Aβ ELISA). It counts as cell-based. As to conditions: rat primary cortical neuronal culture (embryonic day 18 Wistar rats), medium collected three days after addition of the compound, Aβx-42 ELISA, read-out: Aβ42 production reducing effect IC50. As to the method: Quantification of Aβ Peptide in Culture of Neurons from Rat Fetus Brain
(1) Rat Primary Neuronal Culture
Primary neuronal cultures were prepared from the cerebral cortex of embryonic day 18 Wistar rats (Charles River Japan, Yokohama, Japan). Specifically, the embryos were aseptically removed from pregnant rats under ether anesthesia. The brain was isolated from the embryo and immersed in an ice-cold L-15 medium (such as Invitrogen Corp. Cat #11415-064, Carlsbad, Calif., USA, or SIGMA L1518). The cerebral cortex was collected from the isolated brain under a stereoscopic microscope. The cerebral cortex fragments collected were enzymatically treated in an enzyme solution containing 0.25% trypsin (Invitrogen Corp. Cat #15050-065, Carlsbad, Calif., USA) and 0.01% DNase (Sigma D5025, St. Louis, Mo., USA) at 37° C. for 30 minutes to disperse the cells. Here, the enzymatic reaction was stopped by adding inactivated horse serum to the solution. The enzymatically treated solution was centrifuged at 1,500 rpm for five minutes to remove the supernatant. 5 to 10 mL of a medium was added to the resulting cell mass. Neurobasal medium (Invitrogen Corp. Cat #21103-049, Carlsbad, Calif., USA) supplemented with 2% B27 supplement (Invitrogen Corp. Cat #17504-044, Carlsbad, Calif., USA), 25 μM 2-mercaptoethanol (2-ME, WAKO Cat #139-06861, Osaka, Japan), 0.5 mM L-glutamine (Invitrogen Corp. Cat #25030-081, Carlsbad, Calif., USA), and Antibiotics-Antimycotics (Invitrogen Corp. Cat #15240-062, Carlsbad, Calif., USA) was used as the medium (Neurobasal/B27/2-ME). However, the above Neurobasal medium not supplemented with 2-ME (Neurobasal/B27) was used for the assay. The cells were redispersed by mild pipetting of the cell mass to which the medium was added. The cell dispersion was filtered through a 40-μm nylon mesh (Cell Strainer, Cat #35-2340, Becton Dickinson Labware, Franklin Lakes, N.J., USA) to remove the remaining cell mass, and thus a neuronal cell suspension was obtained. The neuronal cell suspension was diluted with the medium and then plated in a volume of 100 μL/well at an initial cell density of 5×10^5 cells/cm^2 in a 96-well polystyrene culture plate pre-coated with poly-L or D-lysine (Falcon Cat #35-3075, Becton Dickinson Labware, Franklin Lakes, N.J., USA coated with poly-L-lysine using the method shown below, or BIOCOAT™ cell environments Poly-D-lysine cell ware 96-well plate, Cat #35-6461, Becton Dickinson Labware, Franklin Lakes, N.J., USA). Poly-L-lysine coating was carried out as follows. 100 μg/mL of a poly-L-lysine (SIGMA P2636, St. Louis, Mo., USA) solution was aseptically prepared with a 0.15 M borate buffer (pH 8.5). […]

As a reminder, the pIC50 is the IC50 on a negative log10 scale, so that one unit is a factor of ten. Take `NC1=N[C@@]2(c3cc(NC(=O)c4ncccc4Br)ccc3F)CCCCC[C@H]2CS1` [Example 253]: the pIC50 was 6.77.
On to `NC1=N[C@@]2(c3cc(NC(=O)c4ncccc4F)ccc3F)CCCCC[C@H]2CS1` [Example 251], for which the pIC50 is 6.92.
As to `NC1=N[C@@]2(c3cc(NC(=O)c4ccc(Cl)cn4)ccc3F)CCCCC[C@H]2CS1` (single isomer, unassigned) [Example 248, N-[3-((4aR*,9aS*)-2-amino-4,4a,5,6,7,8,9,9a-octahydrocyclohepta[d][1,3]thiazin-9a-yl)-4-fluorophenyl]-5-chloropyridine-2-carboxamide], the pIC50 (Neuron, 72 h) was 7.80.
For `NC1=N[C@@]2(c3cc(NC(=O)c4ncccc4C(F)(F)F)ccc3F)CCCCC[C@H]2CS1` [Example 252], the pIC50 is 6.73.
